Experimental data reported in US9376424B2, “Methods for treating post traumatic stress disorder” (AZEVAN PHARMACEUTICALS, INC., priority 2010, dated 2016).

Legend:
[1] = molecular target: V2 (Homo sapiens, UniProt P30518); experiment: V2 receptor inhibition data (Ki); assay type: binding; conditions: selectivity table
[2] = molecular target: T1, human V1a receptor (Homo sapiens, UniProt P37288); experiment: Inhibition of phosphatidylinositol turnover (V1a); assay type: cell-based
T1 construct: host or cells: CHO cells
T1 sequence (P37288 whole entry): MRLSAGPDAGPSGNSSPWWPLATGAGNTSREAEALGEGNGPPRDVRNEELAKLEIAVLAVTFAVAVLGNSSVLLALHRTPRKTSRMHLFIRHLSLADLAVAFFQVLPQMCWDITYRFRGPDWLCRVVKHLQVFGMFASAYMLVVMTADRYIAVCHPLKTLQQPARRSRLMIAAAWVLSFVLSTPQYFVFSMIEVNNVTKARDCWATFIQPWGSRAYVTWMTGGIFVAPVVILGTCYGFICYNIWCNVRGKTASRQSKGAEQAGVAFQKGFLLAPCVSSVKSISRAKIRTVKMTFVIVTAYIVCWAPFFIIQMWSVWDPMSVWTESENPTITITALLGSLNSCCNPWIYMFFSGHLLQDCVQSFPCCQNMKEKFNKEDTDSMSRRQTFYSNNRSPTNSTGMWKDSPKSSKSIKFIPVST
Text: Inhibition of phosphatidylinositol turnover (V1a). The physiological effects of vasopressin are mediated through specific G-protein coupled receptors. The vasopressin V1a receptor is coupled to the Gq/G11 family of G proteins and mediates phosphatidylinositol turnover. The agonist or antagonist character of the compounds of the invention may be determined by their ability to inhibit vasopressin-mediated turnover of phosphatidylinositol by the procedure described in the following paragraphs.
Cell culture and labeling of cells. Three days prior to the assay, near-confluent cultures of hV1a or hV1b cells were dissociated and seeded in 6-well tissue culture plates, about 100 wells being seeded from each 75 cm^2 flask (equivalent to 12:1 split ratio). Each well contained 1 mL of growth medium with 2 μCi of [^3H]myo-inositol (American Radiolabeled Chemicals, St. Louis, Mo., USA).
Incubations (V1a and V1b). All assays were in triplicate except for basal and 10 nM AVP (both n=6). AVP ((arginine vasopressin), Peninsula Labs, Belmont, Calif., USA (#8103)) was dissolved in 0.1N acetic acid. Test agents were dissolved in DMSO and diluted in DMSO to 200 times the final test concentration. […] The order of incubations was randomized. Incubations were initiated by removing the prelabeling medium, washing the monolayer once with 1 mL of 0.9% NaCl, and transferring the contents of the assay tubes to corresponding wells. The plates were incubated for 1 hour at 37° C. Incubations were terminated by removing the incubation medium and adding 500 μL of ice cold 5% (w/v) trichloroacetic acid and allowing the wells to stand for 15 min.
Measurement of [^3H]inositol phosphates (V1a and V1b). BioRad Poly-Prep Econo-Columns were packed with 0.3 mL of AG 1×−8 100-200 formate form resin. Resin was mixed 1:1 with water and 0.6 mL added to each column. Columns were then washed with 10 mL water. Scintillation vials (20 mL) were placed under each column. For each well, the contents were transferred to a minicolumn, after which the well was washed with 0.5 mL distilled water, which was also added to the minicolumn. The columns were then washed twice with 5 mL of 5 mM myo-inositol to elute free inositol. Aliquots (1 mL) were transferred to 20 mL scintillation vials and 10 mL of Beckman Ready Protein Plus added. After the myo-inositol wash was complete, empty scintillation vials were placed under the columns, and [^3H]inositol phosphates were eluted with three additions of 1 mL 0.5 M ammonium formate containing 0.1 N formic acid. Elution conditions were optimized to recover inositol mono-, bis-, and trisphosphates, without eluting the more metabolically inert tetrakis-, pentakis-, and hexakis-phosphates. To each sample was added 10 mL of a high salt capacity scintillation fluid such as Tru-Count High Salt Capacity or Packard Hionic-Fluor. Inositol lipids were measured by adding 1 mL of 2% sodium dodecyl sulfate (SDS) to each well, allowing the wells to stand for at least 30 min., and transferring the solution to 20 mL scintillation vials, to which 10 mL Beckman Ready Protein Plus scintillation fluid was then added. Samples were counted in a Beckman LS 3801 liquid scintillation counter for 10 min. Total inositol incorporation for each well was calculated as the sum of free inositol, inositol phosphates, and inositol lipids.
Data analysis (V1a and V1b): concentration-inhibition experiments. Concentration-response curves for AVP and concentration-inhibition curves for test agents versus 10 nM AVP were analyzed by nonlinear least-squares curve-fitting to a 4-parameter logistic function. Parameters for basal and maximal inositol phosphates, EC50 or IC50, and Hill coefficient were varied to achieve the best fit. The curve-fitting was weighted under the assumption that the standard deviation was proportional to dpm of radioactivity. Full concentration-response curves for AVP were run in each experiment. […]

Sequence of V2 (P30518 whole entry): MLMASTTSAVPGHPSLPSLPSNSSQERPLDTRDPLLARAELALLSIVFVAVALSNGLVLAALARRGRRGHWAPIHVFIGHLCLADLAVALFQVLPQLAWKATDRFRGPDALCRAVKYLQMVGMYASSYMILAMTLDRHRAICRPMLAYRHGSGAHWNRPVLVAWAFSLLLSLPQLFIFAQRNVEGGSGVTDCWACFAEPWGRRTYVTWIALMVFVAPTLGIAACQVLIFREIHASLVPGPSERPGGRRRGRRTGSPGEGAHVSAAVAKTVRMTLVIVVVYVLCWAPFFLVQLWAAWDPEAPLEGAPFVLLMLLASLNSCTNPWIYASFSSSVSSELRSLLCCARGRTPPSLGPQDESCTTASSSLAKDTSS

Molecule `CN(Cc1cccc(C(F)(F)F)c1)C(=O)[C@@H](CC(=O)N1CCC(N2CCCCC2)CC1)N1C(=O)[C@@H](N2C(=O)OC[C@@H]2c2ccccc2)[C@H]1C=Cc1ccccc1` [Example 225, 2(R)-[[4-(Piperidinyl)piperidinyl]carbonylmethyl]-2-[3(S)-(4(S)-phenyloxazolidin-2-on-3-yl)-4(R)-(2-styryl)azetidin-2-on-1-yl]acetic acid N-methyl-N-(3-trifluoromethylbenzyl)amide] has a Ki [1] greater than 1000 nM, a Ki ([2]; Cheng-Prusoff from IC50, hV1a cells, read-out: Ki, suppression of the action of AVP (inositol phosphates)) of 0.05 nM and an IC50 ([2]; versus 10 nM AVP, hV1a cells, read-out: IC50, suppression of the action of AVP (inositol phosphates)) of 2.68 nM.
